Numbered stars: 1 amine (or outer) side, 2 acyl side, 3 side chain; on linkers, the order of the positions; unused ones are H or OH. Square brackets hold non-standard residues; d marks the D form. Side chains are listed from the residue outwards. Peptide text beside a SMILES is read from it. * marks the point of attachment. X1 = O=C(O)CCCCCCCCCCCCCCCCC(=O)N[C@@H](CCC(=O)NCCCNCCCCNCCCN*)C(=O)O; C18 diacid = O=C(O)CCCCCCCCCCCCCCCCC(=O)*; γGlu = O=C(O)[C@H](CCC(=O)[*:2])N[*:1]; εLys = N[C@@H](CCCCN[*:1])C(=O)[*:2]; Stearoyl = CCCCCCCCCCCCCCCCCC(=O)*; NMeL = CN[C@@H](CC(C)C)C(=O)O; Suc = O=C(CCC(=O)[*:2])[*:1]; hSer = N[C@@H](CCO)C(=O)O; Nle = CCCC[C@H](N)C(=O)O; AEEA = NCCOCCOCC(=O)O
Key:
hNK1R = target: T1, hNK1R (Homo sapiens, UniProt P25103); test: IP3 assay (inositol trisphosphate, 3H-myoinositol) in transiently transfected COS-7 cells; format: cell-based; conditions: COS-7 cells; for EC50: 0.2% ovalbumin buffer; for hNK1R, IP3 Efficacy: figure legends: percent of 10^-6 M NKA
T1 construct: host or cells: COS-7
How it was run: (§1)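 COS-7 cells were transiently transfected with receptor plasmid and labelled with ³H-myo-inositol. Cells were lysed in formic acid, and ³H-inositol phosphates were captured on SPA YSI beads and counted.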

hNK2R [1] = target: T2, hNK2R (Homo sapiens, UniProt P21452); test: as above; format: cell-based; conditions: COS-7 cells; for EC50: 0.2% ovalbumin buffer; for hNK2R, IP3 Efficacy: figure legends: percent of 10^-6 M NKA
T2 construct: host or cells: COS-7
T2 sequence (P21452 1-398): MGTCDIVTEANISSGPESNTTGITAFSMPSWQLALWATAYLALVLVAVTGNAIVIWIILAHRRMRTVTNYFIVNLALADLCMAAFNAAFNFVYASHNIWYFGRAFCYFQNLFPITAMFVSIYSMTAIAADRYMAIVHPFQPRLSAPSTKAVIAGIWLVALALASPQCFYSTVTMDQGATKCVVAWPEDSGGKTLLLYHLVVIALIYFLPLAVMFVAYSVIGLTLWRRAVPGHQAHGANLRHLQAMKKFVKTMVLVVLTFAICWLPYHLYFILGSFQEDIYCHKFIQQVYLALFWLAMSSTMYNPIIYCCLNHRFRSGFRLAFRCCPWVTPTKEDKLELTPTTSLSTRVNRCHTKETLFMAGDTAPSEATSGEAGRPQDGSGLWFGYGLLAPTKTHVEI
How it was run: as §1

hNK3R = target: T3, hNK3R (Homo sapiens, UniProt P29371); test: as above; format: cell-based; conditions: COS-7 cells; for EC50: 0.2% ovalbumin buffer, read-out: hNK3, IP3 EC50; for hNK3, IP3 Efficacy: figure legends: percent of 10^-6 M NKA
T3 construct: host or cells: COS-7
T3 sequence (P29371 1-465): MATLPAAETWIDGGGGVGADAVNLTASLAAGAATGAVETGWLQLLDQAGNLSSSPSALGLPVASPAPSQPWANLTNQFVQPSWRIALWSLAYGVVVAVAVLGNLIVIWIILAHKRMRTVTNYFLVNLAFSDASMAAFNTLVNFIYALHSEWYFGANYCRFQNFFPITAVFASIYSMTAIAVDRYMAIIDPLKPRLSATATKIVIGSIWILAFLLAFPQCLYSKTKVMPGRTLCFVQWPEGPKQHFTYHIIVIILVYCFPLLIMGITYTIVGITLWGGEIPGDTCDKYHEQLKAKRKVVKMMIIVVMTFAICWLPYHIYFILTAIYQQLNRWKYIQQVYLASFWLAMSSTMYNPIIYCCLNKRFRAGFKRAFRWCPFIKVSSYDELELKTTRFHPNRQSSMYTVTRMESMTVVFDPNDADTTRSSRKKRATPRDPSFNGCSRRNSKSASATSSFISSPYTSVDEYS
How it was run: as §1

hNK2R [2] = target: T2, hNK2R; test: Indirect human serum albumin binding by IP3 assay, 0.2% ovalbumin vs 1% HSA; format: cell-based
Method: Agonist-induced G-protein coupled receptor (GPCR) activation was measured by an Inositol-1,4,5-Trisphosphate [^3H] Radioreceptor Assay (IPs Assay). Assays were carried out using COS-7 cells transiently transfected by calcium phosphate transfection with a vector pcDNA3.1(+) encoding one of the indicated receptors (Genscript). Briefly, DNA mixed with CaCl2 (2 M) and TE-buffer (10 mM Tris-HCl, 1 mM EDTA, pH 7.5) was dropwise added to 2×HBS (50 mM HEPES, 280 mM NaCl, 1.5 mM NaH2PO4, pH 7.2) and incubated for 45 min at room temperature (22±2° C.). The mixture and a final concentration of 100 μM Chloroquine were added to the cells and left to incubate for 5 hours at 37° C. under standard cell culture conditions (10% CO2) before changing medium to fresh medium containing 5 μl/mL Myo-[2-^3H(N)]-inositol (labeling medium).
The indirect HSA binding IP3 assay takes advantage of the tachykinin receptors' ability to induce production of the inositol trisphosphate (IP3) second messenger upon agonist (ligand) binding on receptor expressing cells following an initial ^3H-inositol labeling period. The assay relies on the assumption that high peptide HSA binding will result in low receptor-mediated production of the second messenger IP3. Thus, the assay is an indirect assessment HSA binding.
Assay solutions used: Wash buffer (HBSS), Assay buffer 0.2% OvAlb (HBSS+10 mM LiCl and 0,2% w/v ovalbumin) or Assay buffer 1% HSA (HBSS+10 mM LiCl and 1% w/v HSA), Lysis buffer (10 mM formic acid), and SPA YSI beads (12.5 mg/ml in H2O). The assay was performed the day after transfection. Briefly, labelling medium was aspirated, and plates were washed ×1 in wash buffer before adding 100 μl assay buffer 0.2% OvAlb or assay buffer 1% HSA, pre-incubated for 30 min followed by 120 min incubation with agonist, both at 37° C. After incubation, plates were immediately placed on ice and the incubation medium was aspirated and 40 μl of 10 mM formic acid per well was added. Plates were incubated for at least 30 min on ice. 60 μl (1 mg/well) SPA YSI beads/well was pipetted into a solid white 96 wells plate and 35 μl of the lysis solution was transferred to the plate before covering plates with seal cover and shaking for 10 min. (max speed). Centrifuge plates and leave for 8 hours at room temperature before counting the plates in a MicroBeta plate counter (Perkin Elmer).

in vivo = test: in vivo; set-up: species or system mice; conditions: mouse
Method: Pharmacokinetics: To evaluate the in vivo half-life of individual peptide analogues we used wild type lean mice at around 10 weeks of age injected once with a peptide analogue. For each sample time point 3-4 mice were used and blood was drawn from the submandibular vein at indicated time points following injection. Prior to injection mice were given ad libitum access to standard chow diet. Mice were subcutaneously injected with 0.5 mg/kg peptide analogue in a volume of 2 ml/kg. The amount of peptide analogue and metabolite(s) present in blood samples were measured by TF-LC-MS and MetID-LC-MS, respectively. Sample preparation: One volume of plasma is precipitated with three volumes of ethanol (with internal standard). The mixture is centrifuged at 13000 g for 20 min. One volume of supernatant is diluted with two volumes of Milli-Q water (1% formic acid). Calibration curve: peptide analogue was spiked into blank mouse plasma. Range: 0.5 to 2000 nM (linear 1/x2).

[3] = Energy expenditure screening by indirect calorimetry in diet-induced obese mice; format: in vivo; conditions: DIO mice, 0.5 mg/kg s.c., increase over vehicle
Method: Indirect calorimetry was used to evaluate the ability of individual peptide analogues to dose-dependently increase energy expenditure (EE) we used metabolic cages and indirect calorimetry measured by the Promethion system. To this end, oxygen consumption was used as a surrogate measure for EE. Substrate preference (fat or carbohydrate) was evaluated using the respiratory exchange ratio (RER). In parallel, behavioral information such as walking distance and water and food intake were recorded.
Prior to experimentation, DIO mice were transferred to habituation cages for at least 10 days (5 days outside and at least 5 days in the Sable Systems gas analyzer module) to acclimatize. For all in vivo compound tests for EE evaluation, mice received subcutaneous injections between 2 and 4 pm.
Energy expenditure screening: After habituation, mice were subcutaneously injected with 0.5 mg/kg peptide analogue in a volume of 2 ml/kg. Mice were injected q.a.d. (quaque altera die) and received a total of two injections. EE was evaluated and increase over vehicle was calculated as percent of mean oxygen consumption over a 30-hour period after injection. Prior to injection peptide analogues were dissolved to 0.25 mg/ml in in vivo buffer.

[4] = 0.2% ovalbumin, read-out: hNK2R, Albumin binding EC50 (nM)-ovalbumin
[5] = 1% HSA, read-out: hNK2R, Albumin binding EC50 (nM)-1% human serum albumin

T1 sequence (P25103 whole entry): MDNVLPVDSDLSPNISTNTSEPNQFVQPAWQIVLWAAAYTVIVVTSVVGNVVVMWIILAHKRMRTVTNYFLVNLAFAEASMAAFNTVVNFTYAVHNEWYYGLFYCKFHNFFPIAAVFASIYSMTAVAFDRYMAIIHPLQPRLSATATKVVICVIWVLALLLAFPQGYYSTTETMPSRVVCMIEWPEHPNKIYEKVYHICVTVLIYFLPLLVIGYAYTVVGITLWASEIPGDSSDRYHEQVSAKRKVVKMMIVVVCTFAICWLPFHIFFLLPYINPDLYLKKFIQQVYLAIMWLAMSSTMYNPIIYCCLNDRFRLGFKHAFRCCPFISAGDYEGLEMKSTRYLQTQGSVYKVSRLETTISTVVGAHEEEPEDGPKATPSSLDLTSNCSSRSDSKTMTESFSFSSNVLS

| Structure (SMILES) | EC50 (hNK1R) [nM] | hNK1R, IP3 Efficacy (hNK1R) [%] | EC50 (hNK2R [1]) [nM] | hNK2R, IP3 Efficacy (hNK2R [1]) [%] | EC50 (hNK3R) [nM] | hNK3, IP3 Efficacy (hNK3R) [%] | hNK2R, Albumin binding Efficacy (%)-ovalbumin (hNK2R [2]; 0.2% ovalbumin) [%] | EC50 (hNK2R [2]; [4]) [nM] | hNK2R, Albumin binding Efficacy (%)-1% human serum albumin (hNK2R [2]; 1% HSA) [%] | EC50 (hNK2R [2]; [5]) [nM] | Plasma exposure [26 h] (in vivo) | level at time molar at 2 h (in vivo; sc, 0.5 mg/kg) [nM] | Energy expenditure (percent of vehicle; based on 30 h average vO2) [3] | half-life (in vivo; sc, 0.5 mg/kg, Half-life) [h] | Plasma exposure [2 h] (in vivo) [nM] |
| --- | --- | --- | --- | --- | --- | --- | --- | --- | --- | --- | --- | --- | --- | --- | --- |
| CCCCCCCCCCCCCCCCCC(=O)N[C@@H](CCC(=O)NCCOCCOCC(=O)NCCOCCOCC(=O)N[C@@H](CC(=O)O)C(=O)N[C@@H](CCCCN)C(=O)N[C@@H](Cc1ccc(O)cc1)C(=O)N[C@H](C(=O)NCC(=O)N(C)[C@@H](CC(C)C)C(=O)N[C@@H](CCOC)C(N)=O)C(C)C)C(=O)O [compound 391, *Asp;Lys;Tyr;Val;Gly;NmLeu;Metox;NH2] ({Stearoyl-γGlu-AEEA-AEEA}-DKYVG[NMeL][hSer](Me)-NH2) | 3.4 | 100 | 0.9 | 90 | 4 | 100 | 100 | 0.9 | 90 | 0.6 | – | – | – | – | – |
| CCCC[C@H](NC(=O)[C@H](CC(C)C)N(C)C(=O)CNC(=O)[C@@H](NC(=O)[C@H](Cc1ccc(O)cc1)NC(=O)[C@H](CCCCN)NC(=O)[C@H](CC(=O)O)NC(=O)CCC(=O)NCCCNCCCCNCCCNC(=O)CC[C@H](NC(=O)CCCCCCCCCCCCCCCCC(=O)O)C(=O)O)C(C)C)C(N)=O [compound 318, *Asp;Lys;Tyr;Val;Gly;NmLeu;Nle;NH2] ({X1-Suc}-DKYVG[NMeL][Nle]-NH2) | – | – | – | – | – | – | – | – | – | – | BLLQ | 237 | 0% of vehicle | – | – |
| CCCCCCCCCCCCCCCCCC(=O)N[C@@H](CCC(=O)NCCOCCOCC(=O)NCCOCCOCC(=O)N[C@@H](CC(=O)O)C(=O)N[C@@H](CCCCN)C(=O)N[C@@H](Cc1ccc(O)cc1)C(=O)N[C@H](C(=O)NCC(=O)N(C)[C@@H](CC(C)C)C(=O)N[C@@H](CCCC)C(N)=O)C(C)C)C(=O)O [compound 390, *Asp;Lys;Tyr;Val;Gly;NmLeu;Nle;NH2] ({Stearoyl-γGlu-AEEA-AEEA}-DKYVG[NMeL][Nle]-NH2) | 3.9 | 88 | 1 | 100 | 14 | 100 | 100 | 1 | 90 | 0.7 | – | – | – | 1.7 | – |
| CCCC[C@H](NC(=O)[C@H](CC(C)C)N(C)C(=O)CNC(=O)[C@@H](NC(=O)[C@H](Cc1ccc(O)cc1)NC(=O)[C@H](CCCCN)NC(=O)[C@H](CC(=O)O)NC(=O)[C@@H](N)CCCCNC(=O)[C@@H](N)CCCCNC(=O)CC[C@H](NC(=O)CCCCCCCCCCCCCCCCC(=O)O)C(=O)O)C(C)C)C(N)=O [compound 321, *Asp;Lys;Tyr;Val;Gly;NmLeu;Nle;NH2] (H-K([εLys-γGlu-C18 diacid])DKYVG[NMeL][Nle]-NH2) | – | – | – | – | – | – | – | – | – | – | 763 nM | – | 5% of vehicle | – | 2266 |

Reference: US20230406883A1, “COMPOUNDS AND THEIR USE IN TREATMENT OF TACHYKININ RECEPTOR MEDIATED DISORDERS” (Embark Biotech ApS, priority 2020, published 2023)
